This test has as its target T1, ABCB1 (multidrug resistance protein 1, P-glycoprotein) (Homo sapiens, UniProt P08183).
T1 construct: recombinant human ABCB1 in MDR1-Sf9 membranes
As to the kind of experiment: vanadate-sensitive ATPase assay (Pi release) in MDR1-Sf9 membranes; inhibition of verapamil-stimulated activity, biphasic in the activation test. Type of test: biochemical. As to conditions: read-out: EC50 (the source's name).

These results are taken from PMC12071533, “Acridine-Based Chalcone 1C and ABC Transporters” (International Journal of Molecular Sciences, 2025).

On to `COc1cccc(OC)c1C(=O)/C=C/c1c2ccccc2nc2ccccc12` [1C, (2E)-3-(acridin-9-yl)-1-(2,6-dimethoxyphenyl)prop-2-en-1-one], for which the IC50 is 5.53 ± 0.97 µM.
